Assay results: article PMC7368552 (ACS chemical neuroscience, 2018)
pEC50, pIC50: −log10 of the molar value. Where two headings read alike, the source gives them in different places.

How the values were obtained:
[1] = system: GSK-3β; conditions: read-out: GSK-3β inhibition IC50; cited from earlier work
[2] = system: Aβ42 induced neurotoxicity in SH-SY5Y cells; conditions: cited from earlier work
[3] = target: T1, GSK-3β (Homo sapiens, UniProt P49841); assay: ADP-Glo kinase luminescent assay, GSK-3β inhibition; assay type: biochemical; conditions: for Ligand-lipophilic efficiency (LiPE): LiPE = pIC50 – CLogP
[4] = Parallel artificial membrane permeability assay; conditions: PAMPA; for Papp at 5 h, 20 μM: pH 7.4, PAMPA permeability classification, pH 7.4, 5 h
[5] = system: GSK-3β mediated tau phosphorylation at pS396; assay: SH-SY5Y whole-cell lysate GSK-3β assay with human tau pS396 ELISA; assay type: biochemical; conditions: for effect on GSK-3β mediated tau hyperphosphorylation (pS396): 2, 10 and 50 μM, 2 h, 37 °C, lysate fortified with 0.25% GSK-3β, ELISA
[6] = system: panel of 41 human protein kinases; assay: Kinase selectivity screening, panel of 41 human protein kinases; assay type: biochemical; conditions: 5 μM
[7] = system: SH-SY5Y cells; assay: Cytotoxicity assessment in SH-SY5Y cells; assay type: cell-based, human; conditions: 72 h
[8] = system: Aβ42 induced neurotoxicity in SH-SY5Y cells; assay: Anti-Aβ42 neurotoxicity assay in SH-SY5Y cells; assay type: cell-based, human
[9] = target: T1, GSK-3β; assay: GSK-3β kinetic studies; assay type: biochemical; conditions: 30 0 to 5 μM

T1 sequence (P49841 whole entry): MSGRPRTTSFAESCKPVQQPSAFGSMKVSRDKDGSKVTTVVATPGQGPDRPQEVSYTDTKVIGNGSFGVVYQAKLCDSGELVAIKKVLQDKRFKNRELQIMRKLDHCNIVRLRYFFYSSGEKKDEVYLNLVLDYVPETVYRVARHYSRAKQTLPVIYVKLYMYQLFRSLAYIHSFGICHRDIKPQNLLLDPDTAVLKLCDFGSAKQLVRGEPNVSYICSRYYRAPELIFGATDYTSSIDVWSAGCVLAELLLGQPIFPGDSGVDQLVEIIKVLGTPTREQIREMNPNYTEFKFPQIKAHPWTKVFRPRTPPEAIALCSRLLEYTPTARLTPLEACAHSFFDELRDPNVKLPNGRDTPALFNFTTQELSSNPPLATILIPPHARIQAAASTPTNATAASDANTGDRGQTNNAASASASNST

## O=C([O-])[O-].[Li+].[Li+] [Lithium carbonate, lithium carbonate]
[1]
  pIC50: 2.70

## O=c1cc(-c2ccc(O)c(O)c2)oc2cc(O)c([C@@H]3O[C@H](CO)[C@@H](O)[C@H](O)[C@H]3O)c(O)c12 [compound 1, isoorientin]
[2]
  effective dose protecting SH-SY5Y cells from Aβ42 (morphology): 200 μM
[2]; read-out: neuroprotective potency, EC50, parent compound
  pEC50: 4.33

## O=c1cc(-c2ccc(O)c(O)c2)oc2c([C@@H]3O[C@H](CO)[C@@H](O)[C@H](O)[C@H]3O)c(O)cc(O)c12 [compound 3, orientin, reference compound]
[3]; GSK-3β inhibition, IC50, as stated in text
  pIC50: < 2.30

## COC(=O)[C@H]1O[C@@H](c2c(OC)cc3oc(-c4ccc(OC)c(OC)c4)cc(=O)c3c2OC)[C@H](O)[C@@H](O)[C@@H]1O [compound 7, Methyl (2S,3S,4R,5R,6S)-6-(2-(3,4-Dimethoxyphenyl)-5,7-dimethoxy-4-oxo-4H-chromen-6-yl)-3,4,5-trihydroxytetrahydro-2H-pyran-2-carboxylate]
[3]; ratio of IC50 values relative to isoorientin 1
  fold increase of potency against GSK-3β in comparison with 1: 1.37 fold

## COc1ccc(-c2cc(=O)c3c(OC)c([C@@H]4O[C@H](C(=O)NC(C)C)[C@@H](O)[C@H](O)[C@H]4O)c(OC)cc3o2)cc1OC [compound 9, (2S,3S,4R,5R,6S)-6-(2-(3,4-Dimethoxyphenyl)-5,7-dimethoxy-4-oxo-4H-chromen-6-yl)-3,4,5-trihydroxy-N-isopropyltetrahydro-2H-pyran-2-carboxamide]
[4]
  Papp at 5 h, 20 μM: > 1.5 ×10⁻⁶ cm/s
[5]
  effect on GSK-3β mediated tau hyperphosphorylation (pS396): effectively attenuated tau hyperphosphorylation in a dose-dependent manner
[3]
  Ligand-lipophilic efficiency (LiPE): ≥ 4

## COc1ccc(-c2cc(=O)c3c(OC)c([C@@H]4O[C@H](C(=O)NC5CCCCC5)[C@@H](O)[C@H](O)[C@H]4O)c(OC)cc3o2)cc1OC [compound 17, (2S,3S,4R,5R,6S)-N-Cyclohexyl-6-(2-(3,4-dimethoxyphenyl)-5,7-dimethoxy-4-oxo-4H-chromen-6-yl)-3,4,5-trihydroxytetrahydro-2H-pyran-2-carboxamide]
[4]
  Papp at 5 h, 20 μM: > 1.5 ×10⁻⁶ cm/s
[5]
  effect on GSK-3β mediated tau hyperphosphorylation (pS396): effectively attenuated tau hyperphosphorylation in a dose-dependent manner

## COc1ccc(-c2cc(=O)c3c(OC)c([C@@H]4O[C@H](C(=O)NCc5ccccc5)[C@@H](O)[C@H](O)[C@H]4O)c(OC)cc3o2)cc1OC [compound 21, (2S,3S,4R,5R,6S)-6-(2-(3,4-Dimethoxyphenyl)-5,7-dimethoxy-4-oxo-4H-chromen-6-yl)-3,4,5-trihydroxy-N-benzyltetrahydro-2H-pyran-2-carboxamide]
[4]
  Papp at 5 h, 20 μM: 1 to 1.5 ×10⁻⁶ cm/s
[5]
  effect on GSK-3β mediated tau hyperphosphorylation (pS396): effectively attenuated tau hyperphosphorylation in a dose-dependent manner

## COc1ccc(-c2cc(=O)c3c(OC)c([C@@H]4O[C@H](C(=O)N[C@@H](C)C(F)(F)F)[C@@H](O)[C@H](O)[C@H]4O)c(OC)cc3o2)cc1OC [compound 30, (2S,3S,4R,5R,6S)-6-(2-(3,4-Dimethoxyphenyl)-5,7-dimethoxy-4-oxo-4H-chromen-6-yl)-3,4,5-trihydroxy-N-((S)-1,1,1-trifluoropropan-2-yl)tetrahydro-2H-pyran-2-carboxamide]
[4]; pH 7.4
  recovery at 5 h, 20 μM: 30%
[4]
  Papp at 5 h, 20 μM: > 1.5 ×10⁻⁶ cm/s
[6]
  inhibition of 40 out of 41 kinases in the test panel: marginal or weak inhibition
[7]
  dose with no observable cytotoxicity: ≤ 1000 µM
[5]; 10 μM, TDZD-8 at the same concentration
  anti-tau effect relative to TDZD-8: comparable to TDZD-8
[5]
  effect on GSK-3β mediated tau hyperphosphorylation (pS396): effectively attenuated tau hyperphosphorylation in a dose-dependent manner
[3]; 5 μM, ratio of % inhibition
  selectivity to GSK-3β versus GSK-3α: 12.3 fold
[3]; 30 compared to 9
  fold increased potency against GSK-3β compared to 9: approximately 9 fold
[3]; 30 compared to 31
  fold more potent against GSK-3β than epimer 31: about 4 fold
[8]; pretreatment 1.25 to 20 μM for 1 h, then 10 μM Aβ42 for 72 h, dose-dependent
  cell viability recovered (from 40% with Aβ42 alone): 100%
[8]; pretreatment, 10 μM Aβ42, 72 h
  effective dose protecting SH-SY5Y cells from Aβ42 (morphology): 10 μM
[9]; ATP 10 μM, GS2 8 to 66 μM
  inhibition mode with respect to substrate GS2: competed with the substrate GS2
[9]; GS2 17 μM, ATP 2 to 50 μM
  inhibition mode with respect to ATP: no competition between ATP and 30

## COc1ccc(-c2cc(=O)c3c(OC)c([C@@H]4O[C@H](C(=O)N[C@H](C)C(F)(F)F)[C@@H](O)[C@H](O)[C@H]4O)c(OC)cc3o2)cc1OC [compound 31, (2S,3S,4R,5R,6S)-6-(2-(3,4-Dimethoxyphenyl)-5,7-dimethoxy-4-oxo-4H-chromen-6-yl)-3,4,5-trihydroxy-N-((R)-1,1,1-trifluoropropan-2-yl)tetrahydro-2H-pyran-2-carboxamide]
[3]
  Ligand-lipophilic efficiency (LiPE): ≥ 4
